# Measured values taken from patent US20070161691A1, “Modified-protein formation inhibitor” (TOKAI UNIVERSITY, priority 2003, published 2007).
# Key:
# [1] = Suppressing effect on the nitration of tyrosine with peroxynitrite; type: biochemical; conditions: in comparison with pyridoxamine as positive control; 0.1, 0.5, 2.5 and 5 mM
# Experimental: According to the method of Pannala, A.S. et al. (Free Radic. Biol. Med., 24:594-606, 1998), the examination was carried out. Namely, tyrosine (final concentration: 100 μM), the test compound (final concentration: 0.1, 0.5, 2.5 and 5 mM) and peroxynitrite (Dojin Kagaku) (final concentration: 500 μM) were dissolved in 200 mM of phosphate buffer (pH7.4) (liquid volume 500 μL) and incubated at 37° C. for 15 minutes. After incubation, the nitrotyrosine formation was determined with HPLC in the following manner: after a predifined time, the reaction mixture (20 μL) was injected onto HPLC, separation was made with C18 column (4.6×250 mm, 5 μm: Waters) and the detection was effected using a ultraviolet detector (RF-10A: Shimazu Seisakusho) at a wavelength of 280 nm. In the mobile phase, the flow rate was 0.6 mL/min and the concentration of buffer B was varied from 5.0% to 30% in 30 minutes (buffer A: 0.10% trifluoroacetic acid; buffer B: 80% acetonitrile containing 0.08% trifluoroacetic acid). 4-Hydroxy-3-nitrobenzoic acid (100 μM) was used as the internal standard.
# [2] = tested on: glomerulonephritis model with mesangial proliferative nephritis; assay: Effect against glomerulonephritis (anti Thy-1 antibody model); type: in vivo, rat; conditions: 1 mg/kg once a day, 5 days
# Experimental: 1.2 mg/kg of OX-7, anti Thy-1 antibody, was administered to wistar rat (male, body weight 150 g, 6 weeks old) in tail vein to prepare typical glomerulonephritis model with mesangial proliferative nephritis. After the administration of anti Thy-1 antibody, test compound (4-(5-phenyltetrazol-1-ylmethyl)-morpholine (compound 1), 1 mg/kg body weight, once a day) was suspended in 0.5% carboxymethylcellulose, was coercively administered for 5 days continuously, on sixth day sampled, kidney was obtained, and analysed pathologically (count the number of glomerular cells). In particular, cells were stained by PAS according to conventional method, the stained image was captured by 3CCD camera (Olympus), and then analyzed using softwares, Image Graver PCI (FUJI shashin film) and Mac Aspect (Mitani kabushiki kaisha). Also, biochemical analysis of blood and urine was carried out (contract clinical analysis organization: SR L).
# [3] = tested on: middle cerebral artery ischemia-reperfusion model; assay: Cerebroprotective action in middle cerebral artery ischemia-reperfusion model; type: in vivo, rat; conditions: for cerebral infarction nest: dosed 5 minutes and 5 hours after occlusion
# Experimental: CD(SD)IGS male rats (Japan Charles River Kabushiki […], Hino farm, room No. 22, specific product) (8 rats per one group) having body weight 270 to 350 g were anesthetized by 2% isoflurane (mixed bas comprising of 70% N2O (laughter gas) and 30% O2) to immobilize, and then the rats were put on warming plate to keep the rectal and brain temperature 37 to 38° C. After that, to observe the stability in the examination, canula which was made by polyethylene (PE-50, Becton Dickinson) was inserted and left in caudal artery of said animal, and this made blood drawing and blood pressure determining to monitor the biochemical parameter such as blood sugar level, hematocrit, CO2 concentration, oxygen partial pressure, pH, blood pressure and etc. In addition, cerebral blood flow in cortex was determined by laser doppler […] (Neuroscience.inc: OMEGA FLOW (FLO-C1)), putting the detection site directly on cranium on the point left 4 mm from bregma. Left neck of such animal was incised, and from internal and external carotid fork of common carotid artery to upstream of internal carotid, nylon surgical thread (length 16 mm, diameter 0.2 to 0.3 mm, with silicon coating on its tip 3 mm) was passed and left, middle cerebral artery was obstructed for 2 hours. After that, the thread was removed to release the middle cerebral artery, and blood was reperfused for 21 hours. To each animals, 3.0 mg/kg of 3-methyl-1-phenyl 2-pyrazolin-5-one (control, hereinafter referring to edaravone) and 4.23 mg/kg of 4-(5-phenyltetrazol-1-ylmethyl)-morpholine (compound 1) (test compound, hereinafter referring to TM-3001) were respectively administered twice by cannula which is left in caudal artery 5 minutes and 5 hours after middle cerebral artery occlusion. After said operation, the brain was removed from said animal, and after preparing 7 brain slices with 2 mm thickness, to TTC stain (0.8 g of 2,3,5-triphenyltetrazolium chloride (Sigma) dissolved in 40 ml of saline) were soaked at 37° C. for 15 minutes to stain, and fixed by 10% neutral formalin liquid to prepare specimen. Such specimens were created the image by CCD camera respectively, and analysed according to method of Swanson et al. (J Cereb Blood Flow Metab 10:290-293; […]). […] Furthermore, function recovering was estimated before and after the operation by rotor rod test that estimates how much they can walk on rotating rotor.
# [4] = tested on: ischemia-reperfusion acute renal failure model; assay: Renal protective effect on ischemia-reperfusion acute renal failure model rat; type: in vivo; conditions: 1 mg/kg once a day, 2 days
# Experimental: This condition model is typical acute renal failure model. To prepare the model, operated on wistar rat (male, body weight 150 g, 6 weeks aged) to remove right kidney, and on the following day, renal artery of remaining left kidney was applied a ligature with clip under general anesthesia. […] After preparing the ischemia-reperfusion model, test compound (4-(5-phenyltetrazol-1-yl methyl)-morpholine (compound 1), 1 mg/kg body weight, once a day) was suspended in 0.5% carboxymethylcellulose. The suspension was coercively administered 2 days continuously, on third day kidney was obtained, and analysed pathologically (renal tubular stromal disorder score). In particular, the kidney was stained by PAS according to conventional method and the renal tubular stromal disorder was estimated for the presence or absence of renal tubular necrosis, renal tubular hypertrophy, renal tubular atrophia, renal tubular basal lamina thickening and cast in the sustained image of kidney. As well as biochemical analysis of blood was carried out (contract clinical analysis organization: SRL).
# [5] = comparing to diluent single administration
compound,measurement,setting,value
"c1ccc(-c2nnnn2CN2CCOCC2)cc1 [Compound 1, 4-(5-phenyltetrazol-1-ylmethyl)-morpholine]","nitrotyrosine formation, suppression",[1],suppressed remarkably
same,BUN,[2],BUN reducing effect
same,urinary protein,[2],urinary protein reducing effect
same,"Nervous condition estimation test, Ave (Bederson grade)",[3]; after occlusion 10 min,2.4
same,"Nervous condition estimation test, Ave (Bederson grade)",[3]; after occlusion 2 hrs,2.9
same,"Nervous condition estimation test, Ave (Bederson grade)",[3]; after reperfusion 10 min,2.6
same,"Nervous condition estimation test, Ave (Bederson grade)",[3]; after reperfusion 3 hrs,2.4
same,"Nervous condition estimation test, Ave (Bederson grade)",[3]; after reperfusion 4 hrs,2.5
same,"rotor rod test, Ave (count from rotor rod machine)",[3]; before occlusion,300.0
same,improvement for nervous condition,[3]; [5],remarkably shown
same,"recovering the function, rotor rod test",[3]; [5],remarkably shown
same,cerebral infarction nest,[3]; [5],reduction of the cerebral infarction nest
same,cerebral infarction nest,"[3]; comparing to diluent single administration, listed as TM-3001",significantly reduced
same,"rotor rod test, Ave (count from rotor rod machine)",[3]; reperfusion,64.8
same,"rotor rod test, ratio to before occlusion (%), Ave",[3]; reperfusion vs before occlusion,21.6%
same,BUN,[4],BUN reducing effect
